Some test systems named below: HCT-15; MDA-MB-231; LOX IMVI; OVCAR-5; SK-MEL-28; HCC 2998; HT-29; BT-549; UACC-62; MCF7; MDA-N; Malme-3M; RPMI-8226; SK-OV-3; NCI-H226; M14; ACHN; CAKI-1; SF-295; SNB-19.
Common to all, as to assay: NCI-60 cell line screen, 48 h

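96-well plates; 48 h exposure; 5 concentrations. Endpoints by linear interpolation between flanking doses. Not reached: highest tested concentration assigned. Here, GI50 denotes the concentration required for 50% inhibition of growth.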 Activity calls are given as the source filed them. Cut-off read from the data, not from the text of the source: active = GI50 up to about 1.1 µM and inactive = higher. A value given as a limit tells only on which side of the number the result lay.

`COc1ccc(NCC(=O)Nn2c(C)nc3ccc(S(=O)(=O)Nc4ccc(OC)cc4)cc3c2=O)cc1`: the GI50 with HCT-15 was over 100 µM; with MDA-MB-231, > 100 µM (inactive); in the test on LOX IMVI, > 100 µM (inactive); in the test on OVCAR-5, > 100 µM (inactive); in the test on SK-MEL-28, > 100 µM (inactive); in the test on HCC 2998, > 100 µM (inactive). For the same compound, the GI50 in the test on HT-29, in the test on BT-549, in the test with UACC-62, in the test on MCF7, in the test on MDA-N and in the test on Malme-3M was > 100 µM (inactive) each time. In addition, the GI50 in the test with RPMI-8226, in the test on SK-OV-3, with NCI-H226, with M14, in the test on ACHN and with CAKI-1 was > 100 µM (inactive) in each case. The GI50 in the test with SF-295 and in the test with SNB-19 was > 100 µM (inactive) each time.
`Cc1ccc(S(=O)(=O)Nn2c(-c3ccccc3)c(C#N)c(-c3ccc([N+](=O)[O-])cc3)c(C#N)c2=O)cc1`: the GI50 in the test on HCT-15 is over 100 µM; with MDA-MB-231 it was > 100 µM (inactive); in the test with LOX IMVI, > 100 µM (inactive); in the test on OVCAR-5, > 100 µM (inactive); in the test with SK-MEL-28, > 100 µM (inactive); in the test with HCC 2998, > 100 µM (inactive). The GI50 in the test on HT-29 is > 100 µM (inactive); with BT-549 it was > 100 µM (inactive); with UACC-62 it was > 100 µM (inactive); with MCF7 it was 61.2 µM (inactive); in the test on MDA-N, > 100 µM (inactive); with Malme-3M, > 100 µM (inactive). Also, the GI50 was 25.8 µM (inactive) with RPMI-8226; > 100 µM (inactive) with SK-OV-3; > 100 µM (inactive) with NCI-H226; > 100 µM (inactive) in the test on M14; > 100 µM (inactive) in the test with ACHN; > 100 µM (inactive) with CAKI-1. The GI50 in the test with SF-295 is > 100 µM (inactive); in the test with SNB-19 it was 40.8 µM (inactive).
Take `NC(=O)NC(=O)c1ccc(NC(=O)CBr)cc1`: the GI50 was 1.8 µM in the test with HCT-15; 2.49 µM (inactive) in the test on MDA-MB-231; 0.558 µM (active) in the test on LOX IMVI; 2.75 µM (inactive) in the test with OVCAR-5; 3.2 µM (inactive) in the test on SK-MEL-28; 12.8 µM (inactive) with HCC 2998. The GI50 with HT-29 was 1.73 µM (inactive); with BT-549, 2.1 µM (inactive); in the test on UACC-62 it was 1.86 µM (inactive); in the test with MCF7, 1.76 µM (inactive); in the test on MDA-N, 2.07 µM (inactive); in the test on Malme-3M, 1.54 µM (inactive). The GI50 in the test with RPMI-8226 was 1.1 µM (active); in the test on SK-OV-3, 3.27 µM (inactive); in the test with NCI-H226 it was 3.33 µM (inactive); in the test with M14 it was 11.8 µM (inactive); with ACHN, 1.44 µM (inactive); with CAKI-1, 0.679 µM (active). Also, the GI50 with SF-295 is 13.6 µM (inactive); in the test on SNB-19, 21.9 µM (inactive).

For the origin of these results see ChEMBL document CHEMBL1201862, “PubChem BioAssay data set” (2004).
